Results from US12390467B2, “Necroptosis inducers or autophagy inhibitors or a combination thereof” (The University of Toledo, priority 2018, dated 2025).

How the values were obtained:
Format in all cases: cell-based
[1] = test system: BT-20 cells; assay: Acridine orange assay; settings: TPH104, 12 h, vs vehicle
Method: The cell-permeant, nucleic acid binding dye, acridine orange (AO) was used to assess the effect of TPH104 on the activation of lysosomes. A 10 μg/ml stock solution was prepared using PBS. The TNBC cells were seeded in a 6-well plate as described in the cell cycle assay. After overnight incubation, cells were incubated with TPH104 (1, 2, 5 μM), vehicle or 20 uM of chloroquine (CQ, […]) for 12 h. The media was removed via suction and 1 ml of AO, diluted in 1:1000 in PBS, was added to each well and the plate was incubated for an additional 30 minutes. Cells were washed three times in PBS to remove excess dye. The cells from each well were captured from randomly selected fields using a fluorescent microscope (EVOS-FLC cell imaging system, Thermofisher scientific) at 40× to determine the AO fluorescence intensity which is positively correlated to lysosomal activation.

[2] = molecular target: T1, P-gp (ABCB1), DU145TXR prostate cancer cells (Homo sapiens, UniProt P08183); assay: Calcein AM assay for P-gp modulation; settings: concentration dependent
T1 construct: endogenous in cells; host or cells: DU145TXR prostate cancer cells
Method: Ability of P-gp to efflux Calcein AM is used to identify the molecules which interfere with P-gp transporter activity. About 10000 cells of DU145TXR prostate cancer cells were seeded in each well in 96 well plates and allowed to grow until confluency for 4-5 days. Then media was replaced with phenol red free RPMI media and cells were treated with indicated concentrations of TPH104s and 1 μg/mL of Calcein AM. Fluorescence measured after 60 minutes with excitation at 485/20 nm and at emission 535/20 nm using the BioTek Cytation 5 imaging multi-mode reader (Bio-Tek, Winooski, VT). DMSO (0.5% v/v) was used as the vehicle, and 15 μM of Pgp inhibitor SMU 45 was used as a positive control. (n=6 in each trial).

[3] = test system: MDA-MB468 (TNBC cell line); assay: MTT cell viability assay, MDA-MB468; settings: Homo sapiens, MDA-MB-468, 72 h, read-out: IC50 ± SD, MDA-MB468
Method: (§1) The following cancer and non-cancer cell lines were used in the initial cytotoxicity screening of the TPH104 compounds: triple negative breast cancer (TNBC): MDA-MB468, MDA-MB 231, and BT-20; non-TNBC: MCF-7 and ZR-75-1; ovarian: Ov2008; prostate: DU145; colon: HCT-116, S1, and LOVO; lung: H460; normal kidney: HEK-293; normal breast: HMEC; and normal colon: CRL-1459. All cells were cultured in Dulbecco's modified Eagle medium (DMEM), supplemented with 10% fetal bovine serum (FBS), and 1% penicillin/streptomycin (P/S). Cells were allowed to grow as adherent monolayers in T25 flasks in a humidified incubator with 5% CO2 at 37° C. for a period of 24 h, unless otherwise specified for certain experiments.
The MTT assay was used to determine the cytotoxicity of all of the compounds. Briefly, in a 96-well flat-bottom cell culture plate, the cells were seeded at a density between 3-5×10^3 cells/well (180 μl in each well) and incubated for 24 h (a hemocytometer was used for cell counting). The next day, the cells were incubated with different concentrations of the nine compounds (0, 0.1, 0.3, 1, 3, 10, 30, and 100 μM) for 72 h. After 72 h, 20 μl of 5 mg/ml of 3-(4,5-dimethylthiazol-2-yl)-2,5-diphenyltetrazolium bromide (MTT) was added to the plate and incubated with the cells for 3 h at 37° C. In this experiment, the living cells will reduce the soluble MTT dye to non-soluble purple formazan crystals. Following incubation, the media containing MTT removed via suction and 100 μL of 100% dimethyl sulfoxide (DMSO) was added to dissolve the formazan crystals. Subsequently, the plate was shaken for 2 minutes and the absorbance was measured at a wavelength of 570 nm using a SpectraMax iD3 Multi-Mode Microplate Reader (Molecular Devices, Sunnyvale, CA). The IC50 values of each compound were calculated and used to determine the selectivity ratio (IC50 in normal cells/IC50 in cancer cells) of each compound as previously described. Based on the results obtained from these experiments, the compound TPH104, which had the lowest IC50 value, was selected for further experiments.

[4] = test system: lung (H460), ovarian (OV2008), prostate (DU145), and colon (HCT-116, LOVO, S1); assay: MTT cytotoxicity screening, other cancer types; settings: H460, OV2008, DU145, HCT-116, LOVO, less potently than in TNBC
Method: as §1
The MTT assay was used to determine the cytotoxicity of all of the compounds. […] Subsequently, the plate was shaken for 2 minutes and the absorbance was measured at a wavelength of 570 nm using a SpectraMax iD3 Multi-Mode Microplate Reader (Molecular Devices, Sunnyvale, CA). The IC50 values of each compound were calculated and used to determine the selectivity ratio (IC50 in normal cells/IC50 in cancer cells) of each compound as previously described. […]
Table 3 (FIG. 30)-Cytotoxicity screening of TPH104 compounds against Colon (HCT-116, LOVO and S1), Prostate (DU145), Ovarian (Ov 2008), and Lung (H460) cancer cell lines. Cell survival was determined using MTT assay as described. […]

T1 sequence (P08183 whole entry): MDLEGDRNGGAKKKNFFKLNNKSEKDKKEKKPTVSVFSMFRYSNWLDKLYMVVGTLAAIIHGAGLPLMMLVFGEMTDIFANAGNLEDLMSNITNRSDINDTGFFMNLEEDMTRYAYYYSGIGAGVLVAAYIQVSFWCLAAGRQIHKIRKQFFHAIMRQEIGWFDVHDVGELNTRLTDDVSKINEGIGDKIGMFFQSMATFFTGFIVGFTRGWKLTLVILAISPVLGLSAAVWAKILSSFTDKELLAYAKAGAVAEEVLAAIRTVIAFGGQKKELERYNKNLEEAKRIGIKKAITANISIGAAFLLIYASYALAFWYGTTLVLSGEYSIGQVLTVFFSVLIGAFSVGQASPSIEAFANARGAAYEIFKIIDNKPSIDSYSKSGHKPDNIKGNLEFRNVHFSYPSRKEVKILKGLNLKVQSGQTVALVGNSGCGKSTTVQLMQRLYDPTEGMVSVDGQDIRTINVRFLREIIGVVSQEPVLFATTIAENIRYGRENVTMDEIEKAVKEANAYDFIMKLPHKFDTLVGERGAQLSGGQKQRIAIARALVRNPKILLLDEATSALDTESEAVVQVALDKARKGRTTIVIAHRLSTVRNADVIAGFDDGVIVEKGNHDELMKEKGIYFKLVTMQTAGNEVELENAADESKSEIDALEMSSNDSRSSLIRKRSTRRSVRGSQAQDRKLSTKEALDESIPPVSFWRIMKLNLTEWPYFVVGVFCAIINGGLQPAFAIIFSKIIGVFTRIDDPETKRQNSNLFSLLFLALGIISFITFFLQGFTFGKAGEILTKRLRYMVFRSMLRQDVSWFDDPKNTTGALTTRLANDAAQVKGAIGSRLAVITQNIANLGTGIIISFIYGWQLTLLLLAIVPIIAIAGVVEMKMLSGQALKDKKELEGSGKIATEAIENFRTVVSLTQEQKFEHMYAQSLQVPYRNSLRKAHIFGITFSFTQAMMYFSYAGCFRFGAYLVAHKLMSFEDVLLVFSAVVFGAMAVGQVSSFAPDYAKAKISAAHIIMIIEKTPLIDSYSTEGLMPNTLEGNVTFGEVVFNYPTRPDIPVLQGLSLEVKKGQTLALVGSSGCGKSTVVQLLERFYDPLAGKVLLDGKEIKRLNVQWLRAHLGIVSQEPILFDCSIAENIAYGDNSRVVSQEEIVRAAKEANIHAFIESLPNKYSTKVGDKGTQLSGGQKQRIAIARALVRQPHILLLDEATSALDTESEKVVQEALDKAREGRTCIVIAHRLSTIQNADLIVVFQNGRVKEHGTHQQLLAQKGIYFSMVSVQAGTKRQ

Q: Which “fluorescence intensity of the acridine orange (AO) dye” value [1] does the source give for `COc1ccc(O)c(/C=N/Nc2ncnc3scc(-c4ccc(C)cc4)c23)c1` [TPH104] here?
A: did not show a significant increase

Q: And the “efflux function of ABCB1” value [2]?
A: blocking the efflux function

Q: What about the IC50 [3] of the same molecule?
A: 250 nM

Q: What about the “proliferation of other types of cancer” value [4] of the same molecule?
A: significantly inhibited
